# Earlier results in patent publication US9456982B2, “Solid formulations of niacin to counteract cold extremities” (BE-WARM LLC, priority 2014, dated 2016).
# Details: therapeutic niacin doses; sometimes longer
structure (smiles),measurement,value
"O=C(O)c1cccnc1 [niacin, pyridine-3-carboxylic acid]",duration of SVFS flush,15 to 30 min
